Experimental data as given in PubChem BioAssay (NCI).
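How tested: cells in 96-well plates exposed to compound for 48 hours at five concentrations. TGI: concentration producing complete growth inhibition.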 Where a SMILES comes first, the peptide text is derived from it. [ ]: non-standard residue; d: D form. The star is where a group is joined. Hyp = O=C(O)[CH]1C[CH](O)CN1; Cbz = O=C(OCc1ccccc1)*

Assays:
Test in all cases: growth of human tumour cells (NCI), 48 h
786-0 renal = tested on: 786-0 renal
MDA-MB-231 breast = tested on: MDA-MB-231 breast
OVCAR-3 ovarian = tested on: OVCAR-3 ovarian
RXF 393 renal = tested on: RXF 393 renal
SK-MEL-5 melanoma = tested on: SK-MEL-5 melanoma
SR leukemia = tested on: SR leukemia

Compound: CN(CCCN1CCCC1)CCCN(C)C(=O)Cc1ccc(Cl)c(Cl)c1
- TGI (786-0 renal): 29.2 µM
- TGI (MDA-MB-231 breast): 31.9 µM
- TGI (OVCAR-3 ovarian): > 88.4 µM
- TGI (RXF 393 renal): 31.9 µM
- TGI (SK-MEL-5 melanoma): 36.3 µM
- TGI (SR leukemia): 28.2 µM

Compound: COC(=O)C1=C(C(=O)OC)N(c2ccncc2)C(c2ccco2)=CC1c1ccccc1[N+](=O)[O-] (centres undefined)
- TGI (786-0 renal): 2.94 µM
- TGI (MDA-MB-231 breast): 27.5 µM
- TGI (OVCAR-3 ovarian): > 28.4 µM
- TGI (RXF 393 renal): 10.6 µM
- TGI (SR leukemia): 5.26 µM

Compound: Nc1csc(-c2scc3c2OCCO3)c1N
- TGI (786-0 renal): 33.3 µM
- TGI (MDA-MB-231 breast): 41.4 µM
- TGI (OVCAR-3 ovarian): 36.1 µM
- TGI (RXF 393 renal): 56.1 µM
- TGI (SK-MEL-5 melanoma): 35.4 µM
- TGI (SR leukemia): > 100 µM

Compound: NC(=O)CNC(=O)C1CC(O)CN1C(=O)C1CCCN1C(=O)OCc1ccccc1 (stereo not drawn) (Cbz-Pro-[Hyp]-Gly-NH2; configuration not given here)
- TGI (786-0 renal): > 100 µM
- TGI (MDA-MB-231 breast): > 100 µM
- TGI (OVCAR-3 ovarian): > 100 µM
- TGI (RXF 393 renal): > 100 µM
- TGI (SK-MEL-5 melanoma): > 100 µM
- TGI (SR leukemia): > 100 µM

Compound: O=C1/C(=C\c2cccc(Oc3ccccc3)c2)SC(c2ccccc2)N1Cc1ccccc1 (centres undefined)
- TGI (786-0 renal): > 100 µM
- TGI (MDA-MB-231 breast): > 100 µM
- TGI (OVCAR-3 ovarian): 70 µM
- TGI (RXF 393 renal): 64 µM
- TGI (SK-MEL-5 melanoma): 28 µM
- TGI (SR leukemia): 56.8 µM

Compound: O=[N+]([O-])c1ccc2nc(/C=C(\O)c3ccccc3)c(NC34CC5CC(CC(C5)C3)C4)nc2c1
- TGI (786-0 renal): > 10 µM
- TGI (MDA-MB-231 breast): > 10 µM
- TGI (OVCAR-3 ovarian): > 10 µM
- TGI (RXF 393 renal): > 10 µM
- TGI (SK-MEL-5 melanoma): > 10 µM

Compound: CCC1=NC(N/N=C/c2ccco2)=N/C1=C\c1ccco1
- TGI (786-0 renal): > 100 µM
- TGI (MDA-MB-231 breast): > 100 µM
- TGI (RXF 393 renal): > 100 µM
- TGI (SK-MEL-5 melanoma): > 100 µM
- TGI (SR leukemia): > 100 µM

Compound: O=c1[nH]nc(Cc2ccc(Cl)cc2)n1CCO
- TGI (786-0 renal): > 100 µM
- TGI (MDA-MB-231 breast): > 100 µM
- TGI (OVCAR-3 ovarian): > 100 µM
- TGI (SK-MEL-5 melanoma): > 100 µM

Compound: COc1cccc(C=C(C#N)C#N)c1OC
- TGI (786-0 renal): > 100 µM
- TGI (OVCAR-3 ovarian): > 100 µM
- TGI (RXF 393 renal): > 100 µM
- TGI (SK-MEL-5 melanoma): > 100 µM
- TGI (SR leukemia): > 100 µM

Compound: Cc1ccc(C2SCc3nc4ccccc4n32)cc1 (centres undefined)
- TGI (786-0 renal): > 100 µM
- TGI (MDA-MB-231 breast): > 100 µM
- TGI (OVCAR-3 ovarian): > 100 µM
- TGI (RXF 393 renal): 6.33 µM
- TGI (SK-MEL-5 melanoma): 5.28 µM

Compound: COc1c(OC)c(OC)c2c(=O)c(OC)c(-c3ccc4c(c3)OCO4)oc2c1OC
- TGI (786-0 renal): > 100 µM
- TGI (MDA-MB-231 breast): > 100 µM
- TGI (OVCAR-3 ovarian): > 100 µM
- TGI (RXF 393 renal): > 100 µM
- TGI (SK-MEL-5 melanoma): > 100 µM

Compound: N#Cc1n[nH]n(-c2ccccc2)c1=O
- TGI (786-0 renal): > 100 µM
- TGI (MDA-MB-231 breast): > 100 µM
- TGI (OVCAR-3 ovarian): > 100 µM
- TGI (RXF 393 renal): > 100 µM
- TGI (SK-MEL-5 melanoma): > 100 µM

Compound: OCCCN=C1N=C(Cl)/C(=C\c2ccccc2)N1
- TGI (786-0 renal): > 100 µM
- TGI (MDA-MB-231 breast): > 100 µM
- TGI (RXF 393 renal): > 100 µM
- TGI (SK-MEL-5 melanoma): > 100 µM
- TGI (SR leukemia): > 100 µM

Compound: N#CCc1nc(-c2cc3ccc(O)cc3oc2=O)cs1
- TGI (786-0 renal): > 100 µM
- TGI (MDA-MB-231 breast): > 100 µM
- TGI (RXF 393 renal): > 100 µM
- TGI (SK-MEL-5 melanoma): > 100 µM
- TGI (SR leukemia): > 100 µM

Compound: O=S(=O)(N1CCCCN(S(=O)(=O)C(F)(F)F)CCCN(S(=O)(=O)C(F)(F)F)CCCCN(S(=O)(=O)C(F)(F)F)CCCN(S(=O)(=O)C(F)(F)F)CCCCN(S(=O)(=O)C(F)(F)F)CCCN(S(=O)(=O)C(F)(F)F)CCCCN(S(=O)(=O)C(F)(F)F)CCC1)C(F)(F)F
- TGI (786-0 renal): > 100 µM
- TGI (MDA-MB-231 breast): > 31.6 µM
- TGI (OVCAR-3 ovarian): > 31.6 µM
- TGI (RXF 393 renal): > 31.6 µM
- TGI (SK-MEL-5 melanoma): > 31.6 µM

Compound: CCOC(=O)c1nc2ccc(C(F)(F)F)cc2nc1NCc1ccc(F)cc1
- TGI (786-0 renal): > 100 µM
- TGI (MDA-MB-231 breast): > 100 µM
- TGI (OVCAR-3 ovarian): > 100 µM
- TGI (RXF 393 renal): > 100 µM
- TGI (SR leukemia): > 100 µM

Compound: COc1cc(/C=C2\CC3C4CC[C@H]5C[C@@H](O)CC[C@]5(C)C4CC[C@]3(C)\C2=N\O)cc(OC)c1OC (some centres undefined)
- TGI (786-0 renal): 34.8 µM
- TGI (MDA-MB-231 breast): 59.7 µM
- TGI (OVCAR-3 ovarian): 11 µM
- TGI (RXF 393 renal): 36.8 µM
- TGI (SK-MEL-5 melanoma): 30.7 µM

Compound: O=C(O)c1ccc2[nH]c(=O)oc2c1
- TGI (786-0 renal): > 100 µM
- TGI (MDA-MB-231 breast): > 100 µM
- TGI (OVCAR-3 ovarian): > 100 µM
- TGI (RXF 393 renal): > 100 µM
- TGI (SR leukemia): > 100 µM

Compound: Oc1cc(F)cc2cccnc12
- TGI (786-0 renal): > 100 µM
- TGI (MDA-MB-231 breast): 32.9 µM
- TGI (RXF 393 renal): 46.4 µM
- TGI (SK-MEL-5 melanoma): 13.4 µM
- TGI (SR leukemia): 2.86 µM

Compound: CNc1cc(Cl)ccc1C(=O)N1CCC[C@H]1CO
- TGI (786-0 renal): > 100 µM
- TGI (MDA-MB-231 breast): > 100 µM
- TGI (RXF 393 renal): > 100 µM
- TGI (SK-MEL-5 melanoma): > 100 µM

Compound: COc1cc(S(=O)(=O)Nc2ccc(-c3csc(/N=C\c4cccc(Oc5ccccc5)c4)n3)cc2)ccc1Cl
- TGI (786-0 renal): > 100 µM
- TGI (OVCAR-3 ovarian): > 100 µM
- TGI (RXF 393 renal): 49.4 µM
- TGI (SK-MEL-5 melanoma): > 100 µM
- TGI (SR leukemia): 81.9 µM

Compound: CCOC(=O)/C=C/C1=C(Br)[C@@]2(C)CC[C@@H]3c4ccc(O)cc4CC[C@H]3[C@@H]2C1
- TGI (786-0 renal): 25.4 µM
- TGI (OVCAR-3 ovarian): 20.5 µM
- TGI (RXF 393 renal): 29.5 µM
- TGI (SK-MEL-5 melanoma): 26.8 µM
- TGI (SR leukemia): 18.5 µM

Compound: O=C(Cn1c2c(c3ccccc31)CCCC2)N1CCOCC1
- TGI (786-0 renal): > 100 µM
- TGI (OVCAR-3 ovarian): > 100 µM
- TGI (SK-MEL-5 melanoma): > 100 µM

Compound: Cc1[nH]c2[nH]c(=S)nc(NC(N)=S)c2c1Cc1ccccc1
- TGI (786-0 renal): 76.1 µM
- TGI (MDA-MB-231 breast): > 100 µM
- TGI (OVCAR-3 ovarian): 77.4 µM
- TGI (SK-MEL-5 melanoma): 26.1 µM
- TGI (SR leukemia): 36.2 µM

Compound: COc1ccc(-c2n[nH]c3nc4ccccc4n3c2=O)cc1
- TGI (786-0 renal): > 100 µM
- TGI (MDA-MB-231 breast): > 100 µM
- TGI (RXF 393 renal): > 100 µM
- TGI (SK-MEL-5 melanoma): > 100 µM

Compound: CNc1ccc(Cl)cc1C(=O)N1CCC[C@H]1CO
- TGI (786-0 renal): > 100 µM
- TGI (MDA-MB-231 breast): > 100 µM
- TGI (OVCAR-3 ovarian): > 100 µM
- TGI (RXF 393 renal): > 100 µM
- TGI (SR leukemia): > 100 µM
